In US20040266623A1, “SYNERGISTIC QUINCLORAC HERBICIDAL COMPOSITIONS” (priority 2003, published 2004):

Columns and labels:
Assay in all cases: Greenhouse pot test, postemergent spray, visual control rating converted to percent control
Type in all cases: in vivo
crabgrass = conditions: for Control (1-9) Crabgrass: scale 1=no control, 9=death of plant
Procedure: (§1) Pots of crabgrass, dandelion, white clover, and plantain grown in greenhouse soiless growth media were sprayed with a greenhouse pot sprayer at 43.46 gallons of spray solution/acre and allowed to stand in the greenhouse. Visual observation of the effects made by the herbicidal compositions on the plants in the test pots was recorded for control of crabgrass, dandelion, clover and plantain at 24 hours after treatment (HAT), 48 hours after treatment (HAT), 72 hours after treatment (HAT), 7 days after treatment (DAT), 14 days after treatment (DAT) and 21 days after treatment (DAT). A control rating scale of 1 to 9 was used to record the visual observation of the effect of the herbicidal composition on the plants over the time period of the tests. 1=no control, and 9=death of plant, with intervening numbers representing successive degrees of observed effectiveness of the herbicidal composition over time. The 1-9 control rating scale was converted to percent control in the test data charts that follow.
(§2) The test protocol of S. R. Colby as set out in his article entitled “Calculating Synergistic and Antagonistic Responses of Herbicide Compositions,” received for publication Apr. 11, 1966, Contribution No. 3796 and Scientific Article No. 1271 of the Maryland Agricultural Experiment Station, Department pf Agronomy, University of Maryland was followed to evaluate the synergistic properties of the combination of quinclorac plus a herbicidal protox inhibitor, and a combination of quinclorac, plus a herbicidal protox inhibitor plus a herbicidal auxinic agent as compared with the individual herbicides, using Colby's formulas E=X+Y−XY/100 for a two herbicide combination, where E=the expected percent of inhibition of growth by herbicides, X=the percent inhibition of growth by herbicide A at p lb/A, and Y=the percent inhibition of growth by herbicide B at q lb/A, for a given combination of two herbicides. Colby's formula E=X+Y+Z−(XY+XZ+YZ)/100+XYZ/10,000, was used for the three-way herbicide combination evaluation, where E, X and Y are the same as in the two herbicide formula and Z=the percent inhibition of growth by the third herbicide.

plantain = conditions: for Control (1-9) Plantain: scale 1=no control, 9=death of plant
Procedure: as §1, §2

white clover = conditions: for Control (1-9) Clover: scale 1=no control, 9=death of plant
Procedure: as §1, §2

dandelion = conditions: for Control (1-9) Dandelion: scale 1=no control, 9=death of plant
Procedure: as §1, §2

`Cc1nn(-c2cc(CC(Cl)C(=O)O)c(Cl)cc2F)c(=O)n1C(F)F` (centres unmarked) [Carfentrazone @ 0.02 lbs/A] was tested, and the “% Control Crabgrass” value (crabgrass; Test 4, 24 HAT) was 11.1%, the “Control (1-9) Crabgrass” value (crabgrass; Test 4, 24 HAT) was 1 and the “% Control Crabgrass” value (crabgrass; Test 4, 72 HAT) was 44.4%. The “Control (1-9) Crabgrass” value (crabgrass; Test 4, 72 HAT) was 4, the “% Control Plantain” value (plantain; Test 4, 24 HAT) was 33.3% and the “Control (1-9) Plantain” value (plantain; Test 4, 24 HAT) was 3. The “% Control Plantain” value (plantain; Test 4, 72 HAT) was 66.7%, the “Control (1-9) Plantain” value (plantain; Test 4, 72 HAT) was 6 and the “% Control Clover” value (white clover; Test 4, 24 HAT) was 44.4%. For the same compound, the “Control (1-9) Clover” value (white clover; Test 4, 24 HAT) was 4, the “% Control Clover” value (white clover; Test 4, 72 HAT) was 44.4% and the “Control (1-9) Clover” value (white clover; Test 4, 72 HAT) was 4. For the same compound, the “% Control Dandelion” value (dandelion; Test 4, 24 HAT) was 33.3%, the “Control (1-9) Dandelion” value (dandelion; Test 4, 24 HAT) was 3 and the “% Control Dandelion” value (dandelion; Test 4, 72 HAT) was 55.6%. For the same compound, the “Control (1-9) Dandelion” value (dandelion; Test 4, 72 HAT) was 5.
With `Cc1nn(-c2cc(CC(Cl)C(=O)O)c(Cl)cc2F)c(=O)n1C(F)F` (centres unmarked) [Carfentrazone @ 0.01 lbs/A] the “% Control Crabgrass” value (crabgrass; Test 4, 24 HAT) was 11.1%, the “Control (1-9) Crabgrass” value (crabgrass; Test 4, 24 HAT) was 1 and the “% Control Crabgrass” value (crabgrass; Test 4, 72 HAT) was 22.2%. For the same compound, the “Control (1-9) Crabgrass” value (crabgrass; Test 4, 72 HAT) was 2, the “% Control Plantain” value (plantain; Test 4, 24 HAT) was 33.3% and the “Control (1-9) Plantain” value (plantain; Test 4, 24 HAT) was 3. For the same compound, the “% Control Plantain” value (plantain; Test 4, 72 HAT) was 88.9%, the “Control (1-9) Plantain” value (plantain; Test 4, 72 HAT) was 8 and the “% Control Clover” value (white clover; Test 4, 24 HAT) was 22.2%. The “Control (1-9) Clover” value (white clover; Test 4, 24 HAT) was 2, the “% Control Clover” value (white clover; Test 4, 72 HAT) was 44.4% and the “Control (1-9) Clover” value (white clover; Test 4, 72 HAT) was 4. The “% Control Dandelion” value (dandelion; Test 4, 24 HAT) was 22.2%, the “Control (1-9) Dandelion” value (dandelion; Test 4, 24 HAT) was 2 and the “% Control Dandelion” value (dandelion; Test 4, 72 HAT) was 33.3%. For the same compound, the “Control (1-9) Dandelion” value (dandelion; Test 4, 72 HAT) was 3.
